In patent publication US9597299B2, “Method for treating gefitinib-resistant non-small-cell lung cancer” (Macau University of Science and Technology, priority 2014, dated 2017):

Key:
Format in all cases: cell-based
[1] = tested on: EGFR PY1173; experiment: immunoblot analysis of EGFR PY1173, H1975 cell lysate
Protocol: (§1) Moreover, the inhibition of PY1173 activation happens as early as in 1 hour after TMS treatment.

[2] = tested on: BEAS-2B (normal epithelial cells); experiment: cell viability assay, BEAS-2B; conditions: Homo sapiens
Text: (§2) Table 1 summarizes the IC50 values of five different cell lines treated with TMS.

[3] = tested on: H358 (EGFR wild-type) NSCLC cells; experiment: cell viability assay, H358; conditions: Homo sapiens, NCI-H358
Text: as §2

[4] = tested on: A549 (EGFR wild-type) NSCLC cells; experiment: cell viability assay, A549; conditions: Homo sapiens
Text: as §2

[5] = tested on: H820 (EGFR double mutation) gefitinib-resistant NSCLC cells; experiment: cell viability assay, H820; conditions: NCI-H820
Text: as §2

[6] = tested on: EGFR PY1173; experiment: immunoblot analysis of EGFR PY1173, A549 cell lysate; conditions: A549 cells
Protocol: as §1

[7] = tested on: H1975 (EGFR double mutation) gefitinib-resistant NSCLC cells; experiment: cell viability assay, H1975
Text: as §2

[8] = tested on: mammalian target of rapamycin (mTOR); experiment: proteomic analysis of apoptosis markers; conditions: proteomics, gefitinib-resistant NSCLC cells, FIG. 3
Text: FIG. 3 is a schematic diagram showing the proteomic analysis result of TMS on different markers involved in apoptosis of gefitinib-resistant non-small-cell lung cancer cells.

[9] = tested on: H1975 cells; experiment: cell morphology, flow cytometry and relative cell viability, TMS with/without JNK inhibitor, H1975; conditions: TMS alone, groups: control, FIG. 6
[10] = tested on: H1975 cells; experiment: cell morphology and flow cytometry (apoptosis), H1975; conditions: gefitinib-resistant NSCLC cell lines (H1975), FIG. 2
[11] = tested on: H1975 cells; experiment: relative cell viability, TMS with/without compound c, H1975

Compound	time to inhibition of PY1173 activation after TMS treatment ([1]; H1975, fixed concentration of TMS)	activation of EGFR PY1173 ([1]; TMS at 40, 60 and 80 nM, gefitinib-resistant NSCLC cells (H1975))	IC50 [2]	IC50 [3]	IC50 [4]	IC50 [5]	inhibitory effect on EGFR (PY1173) [6]	suppression of EGFR PY1173 ([6]; 10-time higher concentration of TMS)	selectivity for gefitinib-resistant NSCLC cells over normal and EGFR wild-type cells ([7]; H1975 and H820 versus BEAS-2B, A549, H358)	IC50 ([7]; Homo sapiens, NCI-H1975, H1975 (EGFR double mutation), cell viability)	effect on mTOR [8]	apoptosis induction / relative cell viability among four treatment groups [9]	induction of apoptosis [10]	apoptosis induction / relative cell viability among four treatment groups ([11]; TMS alone (40 nM), groups: control, compound c, TMS, FIG. 4)	effect of compound c on the effect of TMS ([11]; H1975, FIG. 4)
COc1ccc(/C=C\c2cc(OC)c(OC)c(OC)c2)cc1 [TMS, (Z)3,4,5,4′-tetramethoxystilbene]	≤ 1 h	inhibits the activation of EGFR PY1173	> 400 nM	> 400 nM	> 400 nM	136 ± 35.9 nM	not detected	no suppression of EGFR PY1173 was observed	selectivity on gefitinib-resistant NSCLC cells	57.2 ± 13.5 nM	significantly inhibited	most effective in inducing apoptosis	inducing apoptosis	most effective in inducing apoptosis	
c1cc(-c2cnn3cc(-c4ccc(OCCN5CCCCC5)cc4)cnc23)ccn1 [compound c, reference compound]															counteracts the effect of TMS
